Reference: US20090312414A1, “Treatment Of Lower Urinary Tract Dysfunction With CB2-Receptor-Selective Agonists” (priority 2008, published 2009)

Legend:
[1] = system: conscious rats treated with cyclophosphamide; experiment: Cystometry in cyclophosphamide-induced model of IC/PBS; type: in vivo, rat; details: 10 mg/kg IP; for Bladder capacity (BC): CYP-treated rats
From the text: This study involved the determination of the acute effect of the compound of Formula I on bladder function in conscious rats in the cyclophosphamide-induced model of interstitial cystitis/painful bladder syndrome (“IC/PBS”) using cystometry. The clinical use of cyclophosphamide (“CYP”), a chemotherapy drug that is given as a treatment for many types of cancer, can cause inflammation of the bladder lining, inducing acute hemorrhagic cystitis or chronic cystitis, and result in side effects in the bladder that can be seen in patients with IC/PBS. (Levine L A, Richie J P. Urological complications of cyclophosphamide. J Urol. 1989; 141:1063; Stillwell T J, Benson R C. Cyclophosphamide-induced cystitis. A review of 100 patients. Cancer. 1988; 61:451). The cystitis is not caused by CYP itself, but to acrolein, a toxic CYP metabolite produced by microsomal metabolism that is eliminated by the bladder (Levine L A, Richie J P. Urological complications of cyclophosphamide. J Urol. 1989; 141:1063). In rats, IP administration of CYP induces bladder inflammation and disrupts the urothelial lining, increasing afferent nerve sensitivity and leading to bladder overactivity. Bladder weight is increased due to the inflammation, and bladder capacity is decreased (Corrow K A, Vizzard M A. Phosphorylation of extracellular signal-regulated kinases in urinary bladder in rats with cyclophosphamide-induced cystitis. Am J Physiol. 2007; 293:R125; Lecci A, Birder L A, Meini S, Catalioto R-M, Tramontana M, Giuliani S, Criscuoli M, Maggi C A. Pharmacological evaluation of the role of cyclooxygenase isoenzymes on the micturition reflex following experimental cystitis in rats. Br J Pharmacol. 2000; 130:331).
Male Sprague Dawley rats, weighing 250 g, were maintained under standard laboratory conditions with a 12:12 light/dark cycle and free access to food pellets and water. For surgical procedures, the rats were anesthetized with IP administration of Equinthensin solution (3 ml/kg).
The bladder was exposed via a mid-line incision of the lower abdomen, and the bladder was freed from adhering tissues and emptied. A saline-filled polyethylene catheter (0.58 mm ID and 0.96 mm OD) was implanted in the bladder via an incision at the bladder dome and sutured in place with silk thread. For IV compound administration, a similar PE catheter filled with saline containing sodium heparin (40 IU/ml) was inserted into a jugular vein. The cannulas were exteriorized through a subcutaneous tunnel in the retroscapular area and are connected with a plastic adaptor in order to avoid removal by the animal. […]
Bladder capacity (“BC”) and micturition pressure (“MP”) were the urodynamic parameters evaluated from the cystometrogram. […]

CB1 receptor = CB1 receptor (Homo sapiens, UniProt P21554); experiment: biochemical; type: binding; details: displaces 50% of a radiolabeled agonist
CB2 receptor = CB2 receptor (Homo sapiens, UniProt P34972); experiment: CB2 binding assay (displacement of radiolabeled agonist)
Sequence of CB2 receptor (P34972 whole entry): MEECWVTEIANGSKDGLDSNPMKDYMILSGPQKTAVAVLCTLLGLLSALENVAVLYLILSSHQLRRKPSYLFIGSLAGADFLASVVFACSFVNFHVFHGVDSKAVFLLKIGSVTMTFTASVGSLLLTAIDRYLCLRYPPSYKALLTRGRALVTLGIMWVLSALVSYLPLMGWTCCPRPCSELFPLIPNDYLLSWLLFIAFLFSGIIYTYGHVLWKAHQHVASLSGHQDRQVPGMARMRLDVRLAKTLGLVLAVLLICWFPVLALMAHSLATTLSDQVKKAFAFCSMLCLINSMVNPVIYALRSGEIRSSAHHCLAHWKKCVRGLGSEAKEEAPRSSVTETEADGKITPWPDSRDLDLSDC

Sequence of CB1 receptor (P21554 whole entry): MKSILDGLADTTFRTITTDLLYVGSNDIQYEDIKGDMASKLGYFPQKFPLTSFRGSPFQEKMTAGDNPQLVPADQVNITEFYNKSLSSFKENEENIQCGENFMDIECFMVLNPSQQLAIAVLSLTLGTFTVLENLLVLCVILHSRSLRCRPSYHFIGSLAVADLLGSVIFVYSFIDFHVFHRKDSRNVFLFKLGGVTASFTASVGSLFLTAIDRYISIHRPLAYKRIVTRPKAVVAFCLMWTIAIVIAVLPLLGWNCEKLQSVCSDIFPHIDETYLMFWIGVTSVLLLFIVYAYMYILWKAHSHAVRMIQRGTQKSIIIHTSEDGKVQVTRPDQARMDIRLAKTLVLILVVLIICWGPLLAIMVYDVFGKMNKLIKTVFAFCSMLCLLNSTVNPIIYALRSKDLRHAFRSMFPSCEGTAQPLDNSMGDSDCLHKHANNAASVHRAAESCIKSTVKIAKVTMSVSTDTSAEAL

CCCCCCC(C)(C)c1cc(O)c([C@H]2CC(=O)[C@H]3C[C@@H]2C3(C)C)c(OC(=O)/C=C/C(=O)O)c1 [Formula I]
Reduction of BC compared to pre-CYP treatment levels ([1]; 26 hr time point): 29%
Reduction of BC compared to pre-CYP treatment levels ([1]; 28 hr time point): 21%
Bladder capacity (BC) ([1]; 2 hr post treatment (26 hr time point)): 0.57 ± 0.06 mL
Bladder capacity (BC) ([1]; 4 h after administration (28 hr time point)): 0.63 ± 0.09 mL
IC50 (CB1 receptor): 660 nM
CB2/CB1 affinity ratio (CB2 receptor): 34
IC50 (CB2 receptor; displaces 50% of a radiolabeled agonist): 19.4 nM
